Results: doi:10.1101/2024.02.23.581731v1 (biorxiv, 2024)
Residue numbers refer to the chain shown, from its start.

Assays:
Type in all cases: cell-based
h5-HT3AR [1] = biological target: T1, h5-HT3AR (Homo sapiens, UniProt P46098, S225T); test: FLIPR Blue membrane potential assay, inhibition of 5-HT response
T1 sequence (P46098 24-478 S225T): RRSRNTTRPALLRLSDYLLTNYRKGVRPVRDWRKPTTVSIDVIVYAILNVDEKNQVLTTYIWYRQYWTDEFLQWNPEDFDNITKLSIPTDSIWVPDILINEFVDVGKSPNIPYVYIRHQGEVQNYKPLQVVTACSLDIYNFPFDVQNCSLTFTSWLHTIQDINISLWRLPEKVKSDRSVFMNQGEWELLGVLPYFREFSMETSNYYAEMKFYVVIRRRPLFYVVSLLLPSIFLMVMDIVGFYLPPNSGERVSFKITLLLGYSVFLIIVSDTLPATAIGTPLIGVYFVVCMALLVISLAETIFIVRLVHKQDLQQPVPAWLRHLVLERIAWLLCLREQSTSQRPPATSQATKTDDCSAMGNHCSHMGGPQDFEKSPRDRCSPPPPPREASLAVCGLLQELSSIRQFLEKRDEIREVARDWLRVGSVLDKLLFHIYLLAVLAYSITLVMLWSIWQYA

r5-HT3AR [2] = biological target: T2, r5-HT3AR (Rattus norvegicus, UniProt P35563, I207V); test: as above
T2 sequence (P35563 24-483 I207V): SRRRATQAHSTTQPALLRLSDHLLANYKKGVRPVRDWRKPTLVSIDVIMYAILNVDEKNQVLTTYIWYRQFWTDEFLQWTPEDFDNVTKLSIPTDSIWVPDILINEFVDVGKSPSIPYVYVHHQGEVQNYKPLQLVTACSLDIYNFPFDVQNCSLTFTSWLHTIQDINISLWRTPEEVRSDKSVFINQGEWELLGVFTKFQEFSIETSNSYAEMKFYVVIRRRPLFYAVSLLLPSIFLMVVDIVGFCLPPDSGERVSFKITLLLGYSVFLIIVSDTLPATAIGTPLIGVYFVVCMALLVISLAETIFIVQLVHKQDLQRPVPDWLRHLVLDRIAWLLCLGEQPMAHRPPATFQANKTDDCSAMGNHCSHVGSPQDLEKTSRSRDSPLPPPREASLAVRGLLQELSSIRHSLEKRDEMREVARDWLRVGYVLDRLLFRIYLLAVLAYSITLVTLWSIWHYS

h5-HT3AR [3] = biological target: T3, h5-HT3AR (Homo sapiens, UniProt P46098, V202I); test: as above
T3 sequence (P46098 24-478 V202I): T1 sequence (P46098 24-478 S225T) with V179I, T202S

h5-HT3AR [4] = biological target: T4, h5-HT3AR (Homo sapiens, UniProt P46098); test: TEVC, Xenopus oocytes, activation
T4 sequence (P46098 24-478): T1 sequence (P46098 24-478 S225T) with T202S

r5-HT3AR [5] = biological target: T5, r5-HT3AR (Rattus norvegicus, UniProt P35563); test: FLIPR Blue membrane potential assay, inhibition of 5-HT response
T5 sequence (P35563 24-483): T2 sequence (P35563 24-483 I207V) with V184I

h5-HT3AR [6] = biological target: T6, h5-HT3AR (Homo sapiens, UniProt P46098, M223D); test: as above
T6 sequence (P46098 24-478 M223D): T1 sequence (P46098 24-478 S225T) with M200D, T202S

An IC50 (h5-HT3AR [1]) of 58 nM, an IC50 (r5-HT3AR [2]) of 10 nM and an IC50 (h5-HT3AR [3]) of 37 nM were found for `Cc1ccc(Sc2ccccc2N2CCNCC2)c(C)c1` [vortioxetine] in this work. The EC50 (h5-HT3AR [4]) was 150 nM, the IC50 (r5-HT3AR [5]) was 26 nM and the IC50 (h5-HT3AR [6]) was 375 nM.
